Results as given in publication PMC5789847, “Bismuth antimicrobial drugs serve as broad-spectrum metallo-β-lactamase inhibitors” (Nature Communications, 2018).

How the values were obtained:
NDM-1 = NDM-1 (Klebsiella pneumoniae, UniProt C7C422); assay type: cell-based; design: endogenous in cells; host or cells: E. coli clinical isolate NDM-HK; conditions: NDM-HK cultured with 100 µM compound; control 50.1 °C
Protocol: The cellular thermal shift assay was performed according to a standard method. Clinical isolate of NDM-1-positive E. coli (NDM-HK) was cultured overnight in the absence or presence of 100 µM Bi(III) compounds, i.e., CBS, Bi(NAC)3, Bi(NIT)3. The bacterial pellets were harvested and washed with PBS for 4 times. The cell suspensions were aliquoted into PCR tubes and heat treatment was performed at the designated temperature ranging from 40 °C to 70 °C for 3 min in a 96-well thermal cycler. The tubes were cooled immediately at room temperature for another 3 min after heating and the heating procedures were repeated for three cycles. For the cell lysis, the samples were frozen–thawed for two cycles in liquid nitrogen and thermal cycler set at 25 °C. The samples were vortexed gently after each cycle and were centrifuged at 20,000 × g to obtain the supernatant when the second cycle was finished. All the samples were subjected to western blot analysis for detection and quantification of NDM-1 content as described above.

NDM-HK (NDM-1^+) = assay: microbe, parasite or virus in culture; assay type: cell-based, E. coli
IMP-BL21 (IMP-4^+) = assay: microbe, parasite or virus in culture; assay type: cell-based, E. coli; conditions: IMP-BL21
VIM-BL21 (VIM-2^+) = assay: microbe, parasite or virus in culture; assay type: cell-based, E. coli; conditions: VIM-BL21
NDM-HK [1] = assay: Murine peritonitis infection, mucin-assisted model; assay type: in vivo, BALB/c mice; conditions: 2% mucin
From the text: All experiments were approved by, and performed in accordance with the guidelines approved by Committee on the Use of Live Animals in Teaching and Research (CULATR), the University of Hong Kong. A total of 6–8-week-old, female BALB/c mice (18–22 g) were purchased from Charles River Laboratories, Inc. and were used in all mouse studies. The animals were randomized to cages for each experiment.
In mucin-assisted model, for infection with NDM-1-positive bacteria, an overnight culture of NDM-HK was performed 1:250 dilution in 100 mL LB broth and re-grew to about OD600 0.3 in a 500-mL flask after 2.5 h shaking at 37 °C, 250 rpm. Bacterial pellets were collected and washed by PBS buffer three times for further use. Mice were infected intraperitoneally (i.p.) with a dose of 1 × 10^5 CFU of bacteria in PBS supplemented with 2% mucin. […] Twice-daily treatment via i.p. injection was continued throughout the whole experimental course. For the infection with NDM-1-negative bacteria, all the operations of infection were similar to those used for NDM-HK, except that NDM-HK PCV was used as infection-causing bacteria. […] Twice-daily treatment via i.p. injection was continued throughout the whole experimental course. Body weights and mice survival were monitored till endpoint of the experiment.

NDM-HK [2] = assay: Resistance study: MPC and mutation frequency; assay type: cell-based, E. coli
NDM-HK PCV = assay: Microdilution MIC and checkerboard assay; assay type: cell-based, E. coli
Protocol: The bacteria employed for cell-based and animal studies are listed in Supplementary Table 1. All the E. coli variants were made as described below. The NDM-HK PCV was screened by 20th-generation serial passages of NDM-HK in antibiotic-free medium.
MIC values were determined by standard broth micro-dilution method (Clinical and Laboratory Standards Institute (CLSI) M100-S20, 2010)[64]. Briefly, bacterial cells were cultured in LB broth overnight at 37 °C at 250 rpm and the OD was measured at 600 nm (OD600). The bacterial density was adjusted to about 1 × 10^6 CFU mL^−1 and checked by CFU counting on agar plates afterwards. Tested antibiotics or Bi(III) compounds were added triplicately into individual wells of flat-bottomed 96-well plates and performed 2-fold serial dilution, followed by addition of prepared bacterial inocula. The plate was then incubated at 37 °C for overnight. […] The MIC was determined as the lowest concentration of a drug that could inhibit the growth of microorganism by both visual reading and OD reading at 600 nm using a microtiter plate reader.
Other procedures were kept strictly the same. […] Synergism was defined when FICI ≤ 0.5, indifference was defined when FICI > 0.5 and < 4, and antagonism was defined when FICI≥4[65]. […] All of the determinations were performed at least in triplicate on different days.

[3] = MER + compound, 256 µg mL^-1 set as MIC of Bi(III)

Sequence of NDM-1 (C7C422 29-270 limits assumed): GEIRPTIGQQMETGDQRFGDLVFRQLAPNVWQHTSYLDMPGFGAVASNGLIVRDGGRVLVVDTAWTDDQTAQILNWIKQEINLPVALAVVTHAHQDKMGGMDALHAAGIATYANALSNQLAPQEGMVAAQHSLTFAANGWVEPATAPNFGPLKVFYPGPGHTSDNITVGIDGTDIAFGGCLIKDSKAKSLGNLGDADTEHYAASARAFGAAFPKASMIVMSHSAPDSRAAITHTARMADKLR

Substance: colloidal bismuth subcitrate [CBS]
- NDM-1 melting temperature, treated group (NDM-1): 48 °C
- growth inhibition by CBS itself (NDM-HK (NDM-1^+); NDM-1-positive NDM-HK, even at 256 µg mL^-1): no or minor growth inhibition
- MBC of Bi(III) compound/inhibitor alone (NDM-HK (NDM-1^+); NDM-HK): > 256 µg/mL
- MBC of MER in combination with compound at 32 µg mL^-1 (NDM-HK (NDM-1^+); NDM-HK): 4 µg/mL
- MIC of Bi(III) compound/inhibitor alone (NDM-HK (NDM-1^+); NDM-HK): > 256 µg/mL
- MIC of MER in combination with CBS at 16 µg mL-1 (NDM-HK (NDM-1^+); NDM-HK): 4 µg/mL
- MIC of MER in combination with CBS at 256 µg mL-1 (NDM-HK (NDM-1^+); NDM-HK): 2 µg/mL
- MIC of MER in combination with compound at 32 µg mL^-1 (NDM-HK (NDM-1^+); NDM-HK): 2 µg/mL
- FICI (NDM-HK (NDM-1^+); NDM-HK, MER + compound, 256 µg mL^-1 set as MIC of Bi(III), 128 for Bi(NAC)3): 0.250
- MBC of Bi(III) compound alone (IMP-BL21 (IMP-4^+)): > 256 µg/mL
- MBC of MER in combination with compound at 32 µg mL^-1 (IMP-BL21 (IMP-4^+)): 8 µg/mL
- MIC of Bi(III) compound alone (IMP-BL21 (IMP-4^+)): > 256 µg/mL
- MIC of MER in combination with compound at 32 µg mL^-1 (IMP-BL21 (IMP-4^+)): 4 µg/mL
- FICI (IMP-BL21 (IMP-4^+); [3]): 0.187
- MBC of Bi(III) compound alone (VIM-BL21 (VIM-2^+)): > 256 µg/mL
- MBC of MER in combination with compound at 32 µg mL^-1 (VIM-BL21 (VIM-2^+)): 1 µg/mL
- MIC of Bi(III) compound alone (VIM-BL21 (VIM-2^+)): > 256 µg/mL
- MIC of MER in combination with compound at 32 µg mL^-1 (VIM-BL21 (VIM-2^+)): 0.5 µg/mL
- FICI (VIM-BL21 (VIM-2^+); [3]): 0.047
- protection from death, CBS monotherapy (NDM-HK [1]; i.p. twice daily from 4 h post infection, CBS 20 mg kg^−1 (Fig. 4f), within 48 h): failed to protect any of the mice from death
- mice survival rate, combination therapy of MER and CBS (NDM-HK [1]; i.p. twice daily, MER + CBS 20 mg kg^−1 (Fig. 4f)): 50%
- observed mutation frequency (NDM-HK [2]; MER with increasing CBS concentration): 1.31 × 10^−7 to 9.84 × 10^−10
- MER MPC with CBS (NDM-HK [2]; ≥128 µg mL^−1 CBS): 2 fold MIC
- growth inhibition by CBS itself (NDM-HK PCV; NDM-1-negative NDM-HK PCV, even at 256 µg mL^-1): no or minor growth inhibition
- MIC of MER in combination with CBS at 16 µg mL-1 (NDM-HK PCV; NDM-HK PCV): 0.03 µg/mL
- MIC of MER in combination with CBS at 32 µg mL-1 (NDM-HK PCV; NDM-HK PCV): 0.03 µg/mL
- MIC of MER in combination with CBS at 256 µg mL-1 (NDM-HK PCV; NDM-HK PCV): 0.03 µg/mL
- FICI (NDM-HK PCV; NDM-HK PCV, MER + CBS): 2
